In this assay the test system is BDF1 mice, L1210/MTX-resistant leukemia ip, survival T/C. Kind of assay: NCI In Vivo Anticancer Drug Screen. Data for tumor model L1210 Leukemia resistant to Methotrexate; NSC 740 (intraperitoneal) in B6D2F1 (BDF1) mice. Conditions: endpoint: mean survival time, higher = longer survival. The method, then: The antitumor activity of compounds was measured in mice bearing transplantable tumors. Survival or tumor size were measured and the results are expressed as the measurement made in the treated group (T) divided by the measurement made in the vehicle treated control group (C). The tumor model used in this assay is L1210 Leukemia resistant to Methotrexate; NSC 740 (intraperitoneal) in B6D2F1 (BDF1) mice

[1] abbreviates: dose: 0.5 mg/kg/injection, schedule: Q01DX Z (ip), vehicle: carboxymethylcellulose (CMC).
Setting [2] is: dose: 1.0 mg/kg/injection, schedule: Q01DX Z (ip), vehicle: carboxymethylcellulose (CMC).
Setting [3] is: dose: 2.0 mg/kg/injection, schedule: Q01DX010 (ip), vehicle: other.
The mark [4] stands for this setting: dose: 2.0 mg/kg/injection, schedule: Q01DX Z (ip), vehicle: carboxymethylcellulose (CMC).
The mark [5] stands for this setting: dose: 4.0 mg/kg/injection, schedule: Q01DX010 (ip), vehicle: other.
The mark [6] stands for this setting: dose: 8.0 mg/kg/injection, schedule: Q01DX010 (ip), vehicle: other.
The mark [7] stands for this setting: dose: 8.0 mg/kg/injection, schedule: Q01DX010 (ip), vehicle: saline.
Where [8] appears, read: dose: 16.0 mg/kg/injection, schedule: Q01DX010 (ip), vehicle: saline.
The mark [9] stands for this setting: dose: 62.5 mg/kg/injection, schedule: Q01DX010 (ip), vehicle: saline.
[10] abbreviates: dose: 125.0 mg/kg/injection, schedule: Q01DX010 (ip), vehicle: saline.
The mark [11] stands for this setting: dose: 250.0 mg/kg/injection, schedule: Q01DX010 (ip), vehicle: saline.
[12] abbreviates: dose: 500.0 mg/kg/injection, schedule: Q01DX010 (ip), vehicle: saline.
Where [13] appears, read: dose: 6.0 mg/kg/injection, schedule: Q01DX010 (ip), vehicle: saline.
[14] abbreviates: dose: 12.0 mg/kg/injection, schedule: Q01DX010 (ip), vehicle: saline.
The mark [15] stands for this setting: dose: 10.0 mg/kg/injection, schedule: Q01DX010 (ip), vehicle: saline.
Where [16] appears, read: dose: 12.5 mg/kg/injection, schedule: Q01DX Z (ip), vehicle: saline.
The mark [17] stands for this setting: dose: 18.0 mg/kg/injection, schedule: Q01DX010 (ip), vehicle: saline.

Several values for one entry are separate records, joined by “and”; a condition that tells them apart may be missing. Identical values can stand only once. Inconclusive results and toxic doses are left out.

For `NC(Cc1ccc(N(CCCl)CCCl)cc1)C(=O)O` (configuration not stated), the T/C reads like this: under setting [1], 112 % of control; under setting [2], 123 % of control; under setting [3], 156 % of control; under setting [4], 102 % of control; under setting [5], 98 % of control; (dose: 4.0 mg/kg/injection, schedule: Q01DX Z (ip), vehicle: carboxymethylcellulose (CMC)) 90 % of control. Moreover, the T/C (dose: 5.0 mg/kg/injection, schedule: Q01DX Z (ip), vehicle: carboxymethylcellulose (CMC)) was 107 % of control; the T/C (dose: 7.5 mg/kg/injection, schedule: Q01DX Z (ip), vehicle: carboxymethylcellulose (CMC)) is 86 % of control; the T/C under setting [6] is 91 % of control; the T/C (dose: 10.0 mg/kg/injection, schedule: Q01DX Z (ip), vehicle: carboxymethylcellulose (CMC)) was 93 % of control.
Consider `O=C(Nc1ccc(NC2=NCCN2)cc1)c1ccc(C(=O)Nc2ccc(NC3=NCCN3)cc2)cc1`, for which the T/C reads like this: (dose: 2.0 mg/kg/injection, schedule: Q01DX010 (ip), vehicle: saline) 167 % of control and 219 % of control; (dose: 4.0 mg/kg/injection, schedule: Q01DX010 (ip), vehicle: saline) 248 % of control and 257 % of control; under setting [7], 188 % of control and 243 % of control; under setting [8], 101 % of control and 106 % of control.
For `c1ccc(CCSc2ncnc3nc[nH]c23)cc1`, the T/C by setting is: under setting [9], 93 % of control; under setting [10], 91 % of control; under setting [11], 100 % of control; under setting [12], 100 % of control.
In the case of `Nc1ncnc2[nH]ncc12`, the T/C was 91 % of control and 107 % of control (dose: 1.5 mg/kg/injection, schedule: Q01DX010 (ip), vehicle: saline); 96 % of control and 102 % of control (dose: 3.0 mg/kg/injection, schedule: Q01DX010 (ip), vehicle: saline); 99 % of control and 103 % of control under setting [13]; 89 % of control under setting [14].
In the case of `CNC=O`, the T/C reads like this: (dose: 125.0 mg/kg/injection, schedule: Q01DX Z (ip), vehicle: saline) 117 % of control; (dose: 150.0 mg/kg/injection, schedule: Q01DX Z (ip), vehicle: saline) 104 % of control; (dose: 250.0 mg/kg/injection, schedule: Q01DX Z (ip), vehicle: saline) 111 % of control; (dose: 300.0 mg/kg/injection, schedule: Q01DX Z (ip), vehicle: saline) 156 % of control; (dose: 500.0 mg/kg/injection, schedule: Q01DX Z (ip), vehicle: saline) 112 % of control.
For `O=c1cn[nH]c(=O)[nH]1`, the T/C under setting [10] is 93 % of control; the T/C under setting [11] is 91 % of control and 97 % of control; the T/C under setting [12] was 86 % of control and 90 % of control.
Consider `CC[C@]1(O)C[C@H]2CN(CCc3c([nH]c4ccccc34)[C@@](C(=O)OC)(c3cc4c(cc3OC)N(C=O)[C@H]3[C@@](O)(C(=O)OC)[C@H](OC(C)=O)[C@]5(CC)C=CCN6CC[C@]43[C@@H]65)C2)C1`, for which the T/C runs as follows: (dose: 0.03 mg/kg/injection, schedule: Q01DX010 (ip), vehicle: saline) 94 % of control; (dose: 0.06 mg/kg/injection, schedule: Q01DX010 (ip), vehicle: saline) 106 % of control; (dose: 0.12 mg/kg/injection, schedule: Q01DX010 (ip), vehicle: saline) 95 % of control; (dose: 0.25 mg/kg/injection, schedule: Q01DX010 (ip), vehicle: saline) 89 % of control.
As for `Oc1cc(CN(CCCl)CCCl)c(O)cc1CN(CCCl)CCCl`, the T/C is 96 % of control (dose: 0.25 mg/kg/injection, schedule: Q01DX Z (ip), vehicle: carboxymethylcellulose (CMC)); 110 % of control (dose: 0.37 mg/kg/injection, schedule: Q01DX Z (ip), vehicle: carboxymethylcellulose (CMC)); 88 % of control under setting [1]; 97 % of control (dose: 0.75 mg/kg/injection, schedule: Q01DX Z (ip), vehicle: carboxymethylcellulose (CMC)); 86 % of control under setting [2]; 88 % of control under setting [4].
With `CCCCNc1ncnc2c1cnn2C`, the T/C reads like this: (dose: 31.25 mg/kg/injection, schedule: Q01DX010 (ip), vehicle: saline) 98 % of control and 102 % of control; under setting [9], 90 % of control.
On to `C[C@]12C=CC(=O)C=C1CC[C@@H]1[C@@H]2[C@@H](O)C[C@@]2(C)[C@H]1CC[C@]2(O)C(=O)CO`, for which the T/C reads like this: (dose: 12.5 mg/kg/injection, schedule: Q01DX010 (sc), vehicle: steriod suspending solution) 88 % of control; (dose: 25.0 mg/kg/injection, schedule: Q01DX010 (sc), vehicle: steriod suspending solution) 99 % of control; (dose: 50.0 mg/kg/injection, schedule: Q01DX010 (sc), vehicle: steriod suspending solution) 86 % of control; (dose: 100.0 mg/kg/injection, schedule: Q01DX010 (sc), vehicle: steriod suspending solution) 90 % of control.
For the compound `CSc1ncnc2c1ncn2C1OC(CO)C(O)C1O` (configuration not stated), the T/C reads like this: (dose: 0.5 mg/kg/injection, schedule: Q01DX Z (ip), vehicle: saline) 102 % of control; (dose: 1.0 mg/kg/injection, schedule: Q01DX Z (ip), vehicle: saline) 99 % of control; (dose: 2.0 mg/kg/injection, schedule: Q01DX Z (ip), vehicle: saline) 105 % of control; (dose: 4.0 mg/kg/injection, schedule: Q01DX Z (ip), vehicle: saline) 112 % of control; (dose: 6.25 mg/kg/injection, schedule: Q01DX Z (ip), vehicle: saline) 97 % of control; under setting [15], 107 % of control. The T/C (dose: 12.5 mg/kg/injection, schedule: Q01DX010 (ip), vehicle: saline) was 109 % of control; the T/C under setting [16] is 93 % of control; the T/C (dose: 15.0 mg/kg/injection, schedule: Q01DX010 (ip), vehicle: saline) was 106 % of control; the T/C (dose: 20.0 mg/kg/injection, schedule: Q01DX010 (ip), vehicle: saline) is 102 % of control.
For the compound `O=C(Nc1ccc(C2=NCCCN2)cc1)c1ccc(NC(=O)c2ccc(C3=NCCCN3)cc2)cc1`, the T/C is 168 % of control under setting [3]; 218 % of control and 257 % of control under setting [5]; 181 % of control and 221 % of control under setting [6].
Take `C[n+]1c2ccccc2nc2c(N)cc(N)cc21`: the T/C is 101 % of control and 110 % of control (dose: 3.2 mg/kg/injection, schedule: Q01DX Z (ip), vehicle: other); 116 % of control and 107 % of control (dose: 6.3 mg/kg/injection, schedule: Q01DX Z (ip), vehicle: other); 122 % of control under setting [7]; 114 % of control under setting [14]; 103 % of control and 105 % of control (dose: 12.5 mg/kg/injection, schedule: Q01DX Z (ip), vehicle: other); 96 % of control under setting [17].
With `CN(C)c1ccc(/C=C/c2ccnc3ccccc23)cc1`, the T/C was 121 % of control (dose: 2.5 mg/kg/injection, schedule: Q01DX Z (ip), vehicle: saline); 104 % of control (dose: 5.0 mg/kg/injection, schedule: Q01DX010 (ip), vehicle: saline); 101 % of control (dose: 5.0 mg/kg/injection, schedule: Q01DX Z (ip), vehicle: saline); 95 % of control under setting [15].
For the compound `O=C(Nc1ccc(C2=NCCN2)cc1)c1ccc(C(=O)Nc2ccc(C3=NCCN3)cc2)c([N+](=O)[O-])c1`, the T/C under setting [13] is 259 % of control; the T/C (dose: 6.3 mg/kg/injection, schedule: Q01DX Z (ip), vehicle: saline) was 122 % of control; the T/C under setting [7] is 284 % of control; the T/C under setting [14] is 201 % of control; the T/C under setting [16] is 97 % of control; the T/C under setting [17] is 107 % of control. For the setting “dose: 25.0 mg/kg/injection, schedule: Q01DX Z (ip), vehicle: saline”, the T/C is 116 % of control and 96 % of control.
`O=C(Nc1ccc(C2=NCCN2)cc1)c1cccc(C(=O)Nc2ccc(C3=NCCN3)cc2)c1`: the T/C reads like this: under setting [7], 177 % of control and 209 % of control; (dose: 12.5 mg/kg/injection, schedule: Q01DX Z (ip), vehicle: methylcellulose (MC)) 122 % of control; under setting [8], 211 % of control and 247 % of control; (dose: 32.0 mg/kg/injection, schedule: Q01DX010 (ip), vehicle: saline) 225 % of control and 256 % of control; (dose: 50.0 mg/kg/injection, schedule: Q01DX Z (ip), vehicle: methylcellulose (MC)) 95 % of control; (dose: 64.0 mg/kg/injection, schedule: Q01DX010 (ip), vehicle: saline) 235 % of control and 250 % of control.
